Ki data for 33 compounds are collected here from US11034692B1 (Genentech, Inc., priority 2017, dated 2021).

HPK1, sequence (Q92918 whole entry, looked up): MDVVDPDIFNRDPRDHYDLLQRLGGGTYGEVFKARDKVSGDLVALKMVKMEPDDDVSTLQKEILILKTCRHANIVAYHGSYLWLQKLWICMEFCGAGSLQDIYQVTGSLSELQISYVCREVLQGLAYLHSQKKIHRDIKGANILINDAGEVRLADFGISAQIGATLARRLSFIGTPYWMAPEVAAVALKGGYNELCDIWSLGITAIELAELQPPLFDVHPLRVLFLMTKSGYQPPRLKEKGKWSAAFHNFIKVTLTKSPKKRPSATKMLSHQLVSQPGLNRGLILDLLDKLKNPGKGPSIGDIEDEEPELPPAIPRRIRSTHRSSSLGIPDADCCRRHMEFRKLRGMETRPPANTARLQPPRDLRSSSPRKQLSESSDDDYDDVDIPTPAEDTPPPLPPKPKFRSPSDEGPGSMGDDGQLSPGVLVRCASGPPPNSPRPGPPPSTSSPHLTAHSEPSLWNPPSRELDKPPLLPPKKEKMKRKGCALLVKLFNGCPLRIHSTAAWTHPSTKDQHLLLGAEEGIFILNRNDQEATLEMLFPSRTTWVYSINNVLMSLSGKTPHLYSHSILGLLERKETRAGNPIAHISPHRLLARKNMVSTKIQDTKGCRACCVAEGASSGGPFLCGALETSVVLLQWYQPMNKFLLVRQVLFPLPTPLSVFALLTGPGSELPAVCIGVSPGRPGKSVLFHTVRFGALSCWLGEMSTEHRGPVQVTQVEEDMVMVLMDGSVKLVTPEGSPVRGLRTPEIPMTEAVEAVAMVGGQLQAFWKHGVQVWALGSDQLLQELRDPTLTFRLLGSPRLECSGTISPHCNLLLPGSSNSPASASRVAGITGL

For the first experiment, the target named is HPK1 (Homo sapiens, UniProt Q92918). The experiment is described as follows: HPK1 Lantha Binding Assay ("Lanth"). The conditions noted are these: Table B1-1, read-out: HPK1 Ki (μM) (Lanth). The method in brief:
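TR-FRET tracer displacement with 2 nM GST-tagged kinase, 2 nM Eu-anti-GST antibody and 15 nM Tracer222 at 23 C. Enzyme–antibody preincubated 1 h with compound, then tracer added for 1 h; 340 nm excitation, 615/665 nm emission. Ki from Morrison fit over an 11-point 5-fold dilution.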
As usually defined, the Ki is a dissociation constant, usually derived from enzyme kinetics or from competition with a known ligand. Regarding `Cc1c(-c2cc3cc(NC(=O)[C@@H]4C[C@@H]4F)ncc3c(N)n2)cnc2nc[nH]c12` (racemic) [Compound 52, (±)-cis-N-(8-amino-6-(7-methyl-1H-imidazo [4,5-b]pyridin-6-yl)-2,7-naphthyridin-3-yl)-2-fluorocyclopropanecarboxamide], the Ki was found to be 2.98 nM.

As to `CNC(=O)Cn1cc(Nc2cc3cc(-c4cnccc4C)nc(N)c3cn2)cn1` [Compound 184, 2-[4-[[8-amino-6-(4-methyl-3-pyridyl)-2,7-naphthyridin-3-yl]amino]pyrazol-1-yl]-N-methyl-acetamide], the Ki was 2.5 nM.

Take `Cc1ccncc1-c1nc(N)c2cnc(NC(=O)[C@H]3C[C@@H]3CC#N)cc2c1Br` (racemic) [Compound 210, (+/−)-N-(8-amino-5-bromo-6-(4-methylpyridin-3-yl)-2,7-naphthyridin-3-yl)-2-(cyanomethyl)cyclopropanecarboxamide]: the inhibition constant (Ki) amounted to 0.258 nM.

As to `Cc1ccncc1-c1cc2cc(NC(=O)[C@@H]3C[C@H]3C)ncc2c(N)n1` (racemic) [Compound 118, (±)-trans-N-(8-amino-6-(4-methylpyridin-3-yl)-2,7-naphthyridin-3-yl)-2-methylcyclopropane-1-carboxamide], the Ki is 0.476 nM.

For the compound `Cc1cc2[nH]c(=O)oc2cc1-c1cc2cc(NC(=O)C3C[C@H]3C#N)ncc2c(N)n1` (mixture of isomers) [Compound 135, (±)-((trans-)-N-(8-amino-6-(5-methyl-2-oxo-2,3-dihydrobenzo[d]oxazol-6-yl)-2,7-naphthyridin-3-yl)-2-cyanocyclopropanecarboxamide], the Ki is 0.25 nM.

Consider `CC(C)c1ccncc1-c1cc2cc(NC(=O)[C@H]3C[C@@H]3C#N)ncc2c(N)n1` (racemic) [Compound 50, trans-N-(8-amino-6-(4-isopropylpyridin-3-yl)-2,7-naphthyridin-3-yl)-2-cyanocyclopropanecarboxamide], for which the Ki was 5.9 nM.

Consider `Cc1ccncc1-c1cc2cc(NC(=O)[C@@H]3C[C@]34CCN(S(C)(=O)=O)C4)ncc2c(N)n1` (racemic) [Compound 148, (±)-trans-N-(8-amino-6-(4-methylpyridin-3-yl)-2,7-naphthyridin-3-yl)-5-(methylsulfonyl)-5-azaspiro[2.4]heptane-1-carboxamide], for which the Ki was determined as 2.8 nM.

Regarding `Cn1cc(-c2cc3cc(NC(=O)[C@H]4C[C@@H]4F)ncc3c(N)n2)cn1` (racemic) [Compound 8, trans-N-(8-amino-6-(1-methyl-1H-pyrazol-4-yl)-2,7-naphthyridin-3-yl)-2-fluorocyclopropanecarboxamide], the Ki was found to be 1.64 nM.

For `N#Cc1ccccc1-c1cc2cc(NC(=O)[C@H]3C[C@@H]3C#N)ncc2c(N)n1` (racemic) [Compound 224, (+/−)-trans-N-(8-amino-6-(2-cyanophenyl)-2,7-naphthyridin-3-yl)-2-cyanocyclopropanecarboxamide], the Ki came to 15.2 nM.

Turning to `Cc1ccncc1-c1nc(N)c2cnc(NC(=O)[C@@H]3C[C@H]3CC#N)cc2c1C` (racemic) [Compound 205, (+/−)-trans-N-(8-amino-5-methyl-6-(4-methylpyridin-3-yl)-2,7-naphthyridin-3-yl)-2-(cyanomethyl)cyclopropanecarboxamide], the Ki worked out at 0.0881 nM.

In the case of `CNC(=O)c1cncc(-c2cc3cc(NC(=O)[C@@H]4C[C@@H]4F)ncc3c(N)n2)c1C` (racemic) [Compound 226, cis-5-(1-amino-6-(-2-fluorocyclopropanecarboxamido)-2,7-naphthyridin-3-yl)-N,4-dimethylnicotinamide], the Ki was found to be 58.6 nM.

With `COCCN1CC[C@]2(C[C@@H]2C(=O)Nc2cc3cc(-c4cnccc4C)nc(N)c3cn2)C1` (racemic) [Compound 128, (±)-cis-N-(8-amino-6-(4-methylpyridin-3-yl)-2,7-naphthyridin-3-yl)-5-(2-methoxyethyl)-5-azaspiro[2.4]heptane-1-carboxamide], the Ki came out at 2.5 nM.

With `Cc1c(-c2cc3cc(NC(=O)[C@@H]4C[C@@H]4F)ncc3c(N)n2)cnn1C` (racemic) [Compound 2, (±)-cis-N-(8-amino-6-(1,5-dimethyl-1H-pyrazol-4-yl)-2,7-naphthyridin-3-yl)-2-fluorocyclopropanecarboxamide], the Ki worked out at 1.56 nM.

With `N#C[C@@H]1C[C@H]1C(=O)Nc1cc2cc(-c3cncc4c3CCCC4O)nc(N)c2cn1` (mixture of isomers) [Compound 99, (±)-trans-N-(8-amino-6-(8-hydroxy-5,6,7,8-tetrahydroisoquinolin-4-yl)-2,7-naphthyridin-3-yl)-2-cyanocyclopropane-1-carboxamide], the Ki was determined as 70.7 nM.

For the compound `CCc1ccncc1-c1cc2cc(NC(=O)[C@H]3C[C@@H]3COC)ncc2c(N)n1` (racemic) [Compound 53, (±)-trans-N-(8-amino-6-(4-ethylpyridin-3-yl)-2,7-naphthyridin-3-yl)-2-(methoxymethyl) cyclopropane carboxamide], the inhibitory constant (Ki) came out at 0.736 nM.

For the compound `Cc1ccncc1-c1cc2cc(NC(=O)NC(C)CO)ncc2c(N)n1` (racemic) [Compound 177, 1-(8-amino-6-(4-methylpyridin-3-yl)-2,7-naphthyridin-3-yl)-3-(1-hydroxypropan-2-yl)urea], the Ki came out at 8.5 nM.

Consider `Cc1ccncc1-c1cc2cc(NC(=O)C3CC34CN(c3ncccc3C#N)C4)ncc2c(N)n1` (stereo not drawn) [Compound 150, N-(8-amino-6-(4-methylpyridin-3-yl)-2,7-naphthyridin-3-yl)-5-(3-cyanopyridin-2-yl)-5-azaspiro[2.3]hexane-1-carboxamide], for which the Ki was found to be 0.77 nM.

With `Cc1cc(C(N)=O)ccc1-c1cc2cc(NC(=O)[C@@H]3C[C@@H]3F)ncc2c(N)n1` (racemic) [Compound 48, (±)-4-(1-amino-6-((cis)-2-fluorocyclopropanecarboxamido)-2,7-naphthyridin-3-yl)-3-methylbenzamide], the Ki amounted to 10.3 nM.

Turning to `N#C[C@H]1C[C@@H]1C(=O)Nc1cc2cc(-c3cnccc3CCO)nc(N)c2cn1` (racemic) [Compound 191, (±)-trans-N-(8-amino-6-(4-(2-hydroxyethyl)pyridin-3-yl)-2,7-naphthyridin-3-yl)-2-cyanocyclopropanecarboxamide], the Ki amounted to 2.7 nM.

For `CC(C)(O)Cc1ccncc1-c1cc2cc(NC(=O)[C@H]3C[C@@H]3C#N)ncc2c(N)n1` (racemic) [Compound 225, (+/−)-trans-N-(8-amino-6-(4-(2-hydroxy-2-methylpropyl)pyridin-3-yl)-2,7-naphthyridin-3-yl)-2-cyanocyclopropanecarboxamide], the Ki turned out to be 84.2 nM.

Take `Cc1ccncc1-c1cc2cc(NC(=O)NC(C)CO)ncc2c(N)n1` (stereo not drawn) [Compound 117, l-(8-amino-6-(4-methylpyridin-3-yl)-2,7-naphthyridin-3-yl)-3-(1-hydroxypropan-2-yl)urea]: the Ki stood at 8.47 nM.

In the case of `N#C[C@@H]1C[C@H]1C(=O)Nc1cc2cc(-c3cn[nH]c3)nc(N)c2cn1` (racemic) [Compound 112, (±)-trans-N-(8-amino-6-(1H-pyrazol-4-yl)-2,7-naphthyridin-3-yl)-2-cyanocyclopropane-1-carboxamide], the inhibition constant Ki worked out at 1.87 nM.

With `COCCN1CC[C@]2(C[C@H]2C(=O)Nc2cc3cc(-c4cnccc4C)nc(N)c3cn2)C1` (racemic) [Compound 127, (±)-trans-N-(8-amino-6-(4-methylpyridin-3-yl)-2,7-naphthyridin-3-yl)-5-(2-methoxyethyl)-5-azaspiro[2.4]heptane-1-carboxamide], the inhibition constant Ki came out at 5.3 nM.

For `Cc1cc(N)ncc1-c1cc2cc(NC(=O)[C@@H]3C[C@@H]3F)ncc2c(N)n1` (racemic) [Compound 16, (±)-cis-N-(8-amino-6-(6-amino-4-methylpyridin-3-yl)-2,7-naphthyridin-3-yl)-2-fluorocyclopropanecarboxamide], the Ki worked out at 7.21 nM.

Turning to `Cc1cc2c(cc1-c1cc3cc(NC(=O)[C@H]4C[C@@H]4C#N)ncc3c(N)n1)oc(=O)n2C` (racemic) [Compound 142, (±)-trans-N-(8-amino-6-(3,5-dimethyl-2-oxo-2,3-dihydrobenzo[d]oxazol-6-yl)-2,7-naphthyridin-3-yl)-2-cyanocyclopropanecarboxamide], the Ki was determined as 1.4 nM.

Staying with this experiment, now noted: Table B1-2, read-out: HPK1 Ki, L = Lanth.
For `COC(=O)c1cc(C)c(-c2cc3cc(NC(=O)[C@H]4C[C@@H]4c4cnn(C)c4)ncc3c(N)n2)cn1` (single isomer, unassigned) [Compound 402], the Ki was found to be 0.26 nM.

With `Cc1cccc(Cl)c1-c1cc2cc(NC(=O)[C@H]3C[C@@H]3CC#N)ncc2c(N)n1` (single isomer, unassigned) [Compound 362], the inhibition constant (Ki) was found to be 0.22 nM.

As for `Cc1ccc2c(c1-c1cc3cc(NC(=O)[C@H]4C[C@@H]4CC#N)ncc3c(N)n1)CC[C@@]2(C)O` (single isomer, unassigned) [Compound 353], the Ki turned out to be 29 nM.

Consider `Cc1cc(-c2ccn(C)n2)ncc1-c1cc2cc(NC(=O)[C@H]3C[C@@H]3c3cnn(C)c3)ncc2c(N)n1` (single isomer, unassigned) [Compound 404], for which the inhibitory constant (Ki) was found to be 1.9 nM.

On to `Cc1cc(N2CCC2=O)ncc1-c1cc2cc(NC(=O)[C@H]3C[C@@H]3c3cnn(C)c3)ncc2c(N)n1` (single isomer, unassigned) [Compound 400], for which the Ki is 1.2 nM.

In the case of `Cc1ccnc(Cc2ccccc2)c1-c1cc2cc(NC(=O)[C@@H]3C[C@H]3c3cnn(C)c3)ncc2c(N)n1` (single isomer, unassigned) [Compound 397], the inhibition constant (Ki) worked out at 0.25 nM.

For `Cc1ccncc1-c1cc2cc(NC(=O)C3CC34CC4)ncc2c(N)n1` (stereo not drawn) [Compound 413, N-(8-amino-6-(4-methylpyridin-3-yl)-2,7-naphthyridin-3-yl)spiro[2.2]pentane-1-carboxamide], the Ki was determined as 15 nM.

For `Cc1ccnc(Cc2ccccc2)c1-c1cc2cc(NC(=O)[C@H]3C[C@@H]3c3cnn(C)c3)ncc2c(N)n1` (racemic) [Compound 427, (+/−)-trans-N-(8-amino-6-(2-benzyl-4-methylpyridin-3-yl)-2,7-naphthyridin-3-yl)-2-(1-methyl-1H-pyrazol-4-yl)cyclopropane-1-carboxamide], the Ki amounted to 0.78 nM.
